Legend:
insulin receptors = target: T1, insulin receptors (Homo sapiens, UniProt P06213); test: Receptor binding by displacement studies on IM-9 lymphocytes; settings: compared with native insulin
T1 construct: endogenous in cells; host or cells: IM-9 lymphocytes
Procedure: (§1) The receptor binding was determined by displacement studies on IM-9 lymphocytes. The relative biological activity was determined on cultivated 3T3-L1 adipocytes in the form of the glucose transport.

3T3-L1 adipocytes = test: Relative biological activity as glucose transport in cultivated 3T3-L1 adipocytes; format: cell-based; settings: compared with native insulin
Procedure: as §1

[1] = literature value; cited from earlier work

T1 sequence (P06213 28-758 limits assumed): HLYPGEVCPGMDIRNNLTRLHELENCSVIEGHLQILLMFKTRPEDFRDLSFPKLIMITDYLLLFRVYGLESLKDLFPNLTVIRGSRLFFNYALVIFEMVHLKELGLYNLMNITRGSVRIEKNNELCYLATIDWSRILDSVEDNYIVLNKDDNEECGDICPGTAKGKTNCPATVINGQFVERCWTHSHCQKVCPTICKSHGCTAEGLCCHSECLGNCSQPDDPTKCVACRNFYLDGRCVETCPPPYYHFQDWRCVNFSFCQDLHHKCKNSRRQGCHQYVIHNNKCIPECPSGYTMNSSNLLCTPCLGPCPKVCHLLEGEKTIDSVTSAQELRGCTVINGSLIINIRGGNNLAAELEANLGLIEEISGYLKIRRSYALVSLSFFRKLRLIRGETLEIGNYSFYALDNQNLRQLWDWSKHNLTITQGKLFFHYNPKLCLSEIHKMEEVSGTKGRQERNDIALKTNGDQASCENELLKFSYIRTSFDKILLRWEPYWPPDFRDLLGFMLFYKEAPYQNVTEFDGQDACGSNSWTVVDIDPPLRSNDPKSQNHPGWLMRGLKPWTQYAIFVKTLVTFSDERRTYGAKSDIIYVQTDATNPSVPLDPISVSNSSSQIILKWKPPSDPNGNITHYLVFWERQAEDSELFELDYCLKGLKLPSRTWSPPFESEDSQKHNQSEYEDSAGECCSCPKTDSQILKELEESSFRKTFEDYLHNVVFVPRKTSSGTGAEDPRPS
T1 sequence (P06213 763-1382 partner limits assumed): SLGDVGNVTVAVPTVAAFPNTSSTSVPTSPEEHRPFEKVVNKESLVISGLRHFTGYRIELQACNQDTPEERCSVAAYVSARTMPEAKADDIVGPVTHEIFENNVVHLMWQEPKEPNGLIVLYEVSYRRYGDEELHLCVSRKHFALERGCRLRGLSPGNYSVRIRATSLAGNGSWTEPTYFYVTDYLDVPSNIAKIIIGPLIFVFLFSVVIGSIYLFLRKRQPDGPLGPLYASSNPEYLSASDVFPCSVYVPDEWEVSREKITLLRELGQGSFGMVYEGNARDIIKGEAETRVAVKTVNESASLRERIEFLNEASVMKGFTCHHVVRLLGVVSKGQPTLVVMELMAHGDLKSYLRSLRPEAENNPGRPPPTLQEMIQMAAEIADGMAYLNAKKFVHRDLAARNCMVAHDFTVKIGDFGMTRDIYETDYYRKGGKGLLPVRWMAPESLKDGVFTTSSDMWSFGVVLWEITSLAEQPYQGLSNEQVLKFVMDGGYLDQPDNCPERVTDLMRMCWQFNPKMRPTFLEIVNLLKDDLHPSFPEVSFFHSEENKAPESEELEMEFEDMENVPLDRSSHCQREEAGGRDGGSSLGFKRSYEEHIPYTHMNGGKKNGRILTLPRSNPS

B1,B1′-Sub-[Glu^B26}-des-(B27-B30)-insulin-B26-amide Insulin Dimer
Rel. receptor binding (insulin receptors): 176 ± 45.8% | Rel. biol. activity (3T3-L1 adipocytes): 817.5 ± 224%

B1,B1′-Sub-[Sar^B26]-des-(B27-B30)-insulin-B26-amide Insulin Dimer
Rel. receptor binding (insulin receptors): 412 ± 94.8% | Rel. biol. activity (3T3-L1 adipocytes): 1957 ± 575%

B1,B1′-suberoyl-insulin dimer
bioactivity in vitro [1]: 28.8%

From US6908897B2, “Covalently bridged insulin dimers” (Aventis Pharma Deutschland GmbH, priority 1999, dated 2005)
